# Read-outs that look alike come from different tables or passages of the source.
# Target: USP7 (Homo sapiens (Human), UniProt Q93009)
# Assay: USP7 fluorescence polarisation (FP) assay with ubiquitin-Lys-TAMRA substrate
# Type: biochemical
# Details: biochemical inhibition
# Experimental: USP7 activity was monitored in a fluorescence polarisation (FP) homogeneous assay using the isopeptide ubiquitin-Lys-TAMRA substrate (U-558, Boston Biochem). Full-length USP7 was purchased from Boston Biochem (His6-USP7FL, E-519). Unless otherwise stated, all other reagents were purchased from Sigma-Aldrich. Enzymatic reactions were conducted in black flat-bottom low volume polystyrene 384-well plates (Grenier) and 15 μL total volume. USP7 (2.5 nM, 5 μL) was incubated in assay buffer (50 mM HEPES (pH 7.2), 150 mM NaCl, 5 mM DTT, 0.05% BSA (w/v), 0.05% CHAPS) in the presence or absence of inhibitor (5 μL). Inhibitors were stored as 10 mM DMSO stocks in an inert environment (low humidity, dark, low oxygen, room temperature) using a Storage Pod System and serial dilutions were prepared in buffer just prior to the assay (from 200 to 0.003 μM, 11 dp curve). Following incubation at room temperature for 30 min, the enzymatic reactions were initiated by dispensing the Ub substrate (50 nM, 5 μL). FP was measured every 5 min over a period of 1.5 h (within the linear range of the assay) using a Pherastar FSX (BMG Labtech) exciting at 530 nm and measuring the amount of parallel and perpendicular light at 575 nm. The FP signal was subsequently normalised to the control without compound present. Data were plotted and fitted, and the concentrations resulting in 50% inhibition (IC50) were calculated using the non-linear regression curve fitting model using GraphPad Prism.
# [1] = read-out: USP7 IC50 activity (Table 3a, classes)
# [2] = unit not given in Table 3b (Table 1 and key of Table 3a use μM), read-out: USP7 IC50 activity (Table 3b)
# Sequence of USP7 (Q93009 whole entry): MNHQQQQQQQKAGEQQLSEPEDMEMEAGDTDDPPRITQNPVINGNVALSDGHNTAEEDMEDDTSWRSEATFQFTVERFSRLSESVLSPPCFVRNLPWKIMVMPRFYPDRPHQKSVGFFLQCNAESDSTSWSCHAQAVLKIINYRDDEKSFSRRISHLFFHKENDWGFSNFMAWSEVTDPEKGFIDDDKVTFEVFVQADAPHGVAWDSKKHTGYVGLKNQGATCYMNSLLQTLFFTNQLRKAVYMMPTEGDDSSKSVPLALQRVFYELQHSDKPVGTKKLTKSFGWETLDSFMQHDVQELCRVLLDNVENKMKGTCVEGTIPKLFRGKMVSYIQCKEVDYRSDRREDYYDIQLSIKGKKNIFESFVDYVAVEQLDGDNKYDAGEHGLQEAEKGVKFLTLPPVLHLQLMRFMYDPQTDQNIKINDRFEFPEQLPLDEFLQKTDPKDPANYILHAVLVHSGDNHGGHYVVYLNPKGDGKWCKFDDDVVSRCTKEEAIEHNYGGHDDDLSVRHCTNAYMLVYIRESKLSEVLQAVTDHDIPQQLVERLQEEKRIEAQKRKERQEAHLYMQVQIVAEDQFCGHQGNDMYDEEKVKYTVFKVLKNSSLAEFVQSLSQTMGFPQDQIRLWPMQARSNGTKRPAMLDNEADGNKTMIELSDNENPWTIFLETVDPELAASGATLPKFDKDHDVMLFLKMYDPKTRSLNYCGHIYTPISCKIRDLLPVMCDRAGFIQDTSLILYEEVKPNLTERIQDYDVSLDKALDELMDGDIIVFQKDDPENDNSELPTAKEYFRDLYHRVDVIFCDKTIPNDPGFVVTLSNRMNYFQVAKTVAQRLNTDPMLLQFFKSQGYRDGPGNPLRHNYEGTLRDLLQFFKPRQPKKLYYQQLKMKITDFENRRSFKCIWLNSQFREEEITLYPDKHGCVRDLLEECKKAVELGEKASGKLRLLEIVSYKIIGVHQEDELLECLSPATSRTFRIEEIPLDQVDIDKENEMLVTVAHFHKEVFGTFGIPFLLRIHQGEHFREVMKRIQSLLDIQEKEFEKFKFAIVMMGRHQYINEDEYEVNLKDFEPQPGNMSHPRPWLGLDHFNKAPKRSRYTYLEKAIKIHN
IC50 [1] [µM],IC50 [2] [µM],SMILES
0.1 to 0.25,0.13,"Cc1cc(-n2c(Cl)cc3c(=O)n(CC4(O)CCN(C(=O)c5ccc(Cl)cc5)CC4)cnc32)ccc1[C@H]1CO[C@H](C)CN1 [Example 12, 6-Chloro-3-((1-(4-chlorobenzoyl)-4-hydroxypiperidin-4-yl)methyl)-7-(3-methyl-4-((3S,6R)-6-methylmorpholin-3-yl)phenyl)-3,7-dihydro-4H-pyrrolo[2,3-d]pyrimidin-4-one]"
0.25 to 2,0.379,"C[C@H]1CN[C@H](c2ccc(-n3c(Cl)cc4c(=O)n(CC5(O)CCN(C(=O)c6ccccc6)CC5)cnc43)cc2)CO1 [Example 20, 3-((1-Benzoyl-4-hydroxypiperidin-4-yl)methyl)-6-chloro-7-(4-((3R,6S)-6-methylmorpholin-3-yl)phenyl)-3,7-dihydro-4H-pyrrolo[2,3-d]pyrimidin-4-one]"
< 0.1,0.018,"C[C@H]1CN[C@H](c2ccc(-n3c(Cl)cc4c(=O)n(CC5(O)CCN(C(=O)[C@]6(C)C[C@H]6C(F)F)CC5)cnc43)cc2)CO1 [Example 112, 6-Chloro-3-((1-((1R,2R)-2-(difluoromethyl)-1-methylcyclopropane-1-carbonyl)-4-hydroxypiperidin-4-yl)methyl)-7-(4-((3R,6S)-6-methylmorpholin-3-yl)phenyl)-3,7-dihydro-4H-pyrrolo[2,3-d]pyrimidin-4-one]"
0.1 to 0.25,0.147,"C[C@@H]1CN[C@@H](c2ccc(-n3c(Cl)cc4c(=O)n(CC5(O)CCN(C(=O)c6ccc(F)cc6)CC5)cnc43)cc2)CO1 [Example 25, 6-Chloro-3-((1-(4-fluorobenzoyl)-4-hydroxypiperidin-4-yl)methyl)-7-(4-((3S,6R)-6-methylmorpholin-3-yl)phenyl)-3,7-dihydro-4H-pyrrolo[2,3-d]pyrimidin-4-one]"
0.1 to 0.25,0.151,"O=C(c1ccc(Cl)cc1)N1CCC(O)(Cn2cnc3c(cc(Cl)n3-c3ccc(C4COC5CCCC5N4)cc3)c2=O)CC1 (stereo not drawn) [Example 54, 6-Chloro-3-((1-(4-chlorobenzoyl)-4-hydroxypiperidin-4-yl)methyl)-7-(4-(octahydrocyclopenta[b][1,4]oxazin-3-yl)phenyl)-3,7-dihydro-4H-pyrrolo[2,3-d]pyrimidin-4-one]"
0.25 to 2,0.372,"CC1(C(=O)N2CCC(O)(Cn3cnc4c(cc(Cl)n4-c4ccc(C5COCC6(CC6)N5)cc4)c3=O)CC2)CC1 (stereo not drawn) [Example 19, 7-(4-(7-Oxa-4-azaspiro[2.5]octan-5-yl)phenyl)-6-chloro-3-((4-hydroxy-1-(1-methylcyclopropane-1-carbonyl)piperidin-4-yl)methyl)-3,7-dihydro-4H-pyrrolo[2,3-d]pyrimidin-4-one]"
0.1 to 0.25,0.143,"CC1(C)CN[C@@H](c2ccc(-n3c(Cl)cc4c(=O)n(CC5(O)CCN(C(=O)c6ccc(Cl)cc6)CC5)cnc43)cc2)CO1 (single isomer, unassigned) [Example 23]"
0.25 to 2,0.511,"C[C@H]1CN[C@H](c2ccc(-n3c(Cl)cc4c(=O)n(CC5(O)CCN(C(=O)c6ccccc6F)CC5)cnc43)cc2)CO1 [Example 36, 6-Chloro-3-((1-(2-fluorobenzoyl)-4-hydroxypiperidin-4-yl)methyl)-7-(4-((3R,6S)-6-methylmorpholin-3-yl)phenyl)-3,7-dihydro-4H-pyrrolo[2,3-d]pyrimidin-4-one]"
0.1 to 0.25,0.164,"Cc1cc(-n2c(Cl)cc3c(=O)n(CC4(O)CCN(C(=O)c5ccc(Cl)cc5F)CC4)cnc32)ccc1[C@H]1CO[C@H](C)CN1 [Example 50, 6-Chloro-3-((1-(4-chloro-2-fluorobenzoyl)-4-hydroxypiperidin-4-yl)methyl)-7-(3-methyl-4-((3S,6R)-6-methylmorpholin-3-yl)phenyl)-3,7-dihydro-4H-pyrrolo[2,3-d]pyrimidin-4-one]"
0.1 to 0.25,0.169,"CC1(C)COCC(c2ccc(-n3c(Cl)cc4c(=O)n(CC5(O)CCN(C(=O)C6(C)CC6)CC5)cnc43)cc2)N1 (stereo not drawn) [Example 15, 6-Chloro-7-(4-(5,5-dimethylmorpholin-3-yl)phenyl)-3-((4-hydroxy-1-(1-methylcyclopropane-1-carbonyl)piperidin-4-yl)methyl)-3,7-dihydro-4H-pyrrolo[2,3-d]pyrimidin-4-one]"
< 0.1,0.028,"C[C@@H]1CN[C@@H](c2ccc(-n3c(Cl)cc4c(=O)n(CC5(O)CCN(C(=O)C[C@H](c6ccccc6)C(F)(F)F)CC5)cnc43)cc2)CO1 [Example 13, 6-Chloro-3-((4-hydroxy-1-((R)-4,4,4-trifluoro-3-phenylbutanoyl)piperidin-4-yl)methyl)-7-(4-((3S,6R)-6-methylmorpholin-3-yl)phenyl)-3,7-dihydro-4H-pyrrolo[2,3-d]pyrimidin-4-one]"
0.1 to 0.25,0.222,"C[C@H]1CN[C@H](c2ccc(-n3c(Cl)cc4c(=O)n(CC5(O)CCN(C(=O)c6ccc(Cl)cc6)CC5)cnc43)cc2)CO1 [Example 4, 6-Chloro-3-((1-(4-chlorobenzoyl)-4-hydroxypiperidin-4-yl)methyl)-7-(4-((3R,6S)-6-methylmorpholin-3-yl)phenyl)-3,7-dihydro-4H-pyrrolo[2,3-d]pyrimidin-4-one]"
0.1 to 0.25,0.218,"CC1(C)CN[C@@H](c2ccc(-n3c(Cl)cc4c(=O)n(CC5(O)CCN(C(=O)c6ccc(F)cc6)CC5)cnc43)cc2)CO1 (single isomer, unassigned) [Example 28]"
0.1 to 0.25,0.145,"C[C@H]1CN[C@H](c2ccc(-n3c(Cl)cc4c(=O)n(CC5(O)CCN(C(=O)[C@@]6(C)C[C@@H]6C(F)F)CC5)cnc43)cc2)CO1 [Example 111, 6-Chloro-3-((1-((1 S,2S)-2-(difluoromethyl)-1-methylcyclopropane-1-carbonyl)-4-hydroxypiperidin-4-yl)methyl)-7-(4-((3R,6S)-6-methylmorpholin-3-yl)phenyl)-3,7-dihydro-4H-pyrrolo[2,3-d]pyrimidin-4-one]"
0.1 to 0.25,0.225,"Cc1cc(-n2c(Cl)cc3c(=O)n(CC4(O)CCN(C(=O)c5ccc(Cl)cc5)CC4)cnc32)ccc1[C@@H]1CO[C@@H](C)CN1 [Example 5, 6-Chloro-3-((1-(4-chlorobenzoyl)-4-hydroxypiperidin-4-yl)methyl)-7-(3-methyl-4-((3R,6S)-6-methylmorpholin-3-yl)phenyl)-3,7-dihydro-4H-pyrrolo[2,3-d]pyrimidin-4-one]"
0.1 to 0.25,0.132,"CC[C@H]1CN[C@H](c2ccc(-n3c(Cl)cc4c(=O)n(CC5(O)CCN(C(=O)[C@@]6(C)C[C@@H]6C)CC5)cnc43)cc2)CO1 [Example 95, 6-Chloro-3-((1-((1 S,2S)-1,2-dimethylcyclopropane-1-carbonyl)-4-hydroxypiperidin-4-yl)methyl)-7-(4-((3R,6S)-6-ethylmorpholin-3-yl)phenyl)-3,7-dihydro-4H-pyrrolo[2,3-d]pyrimidin-4-one]"
0.1 to 0.25,0.161,"C[C@H]1COC[C@@H](c2ccc(-n3c(Cl)cc4c(=O)n(CC5(O)CCN(C(=O)c6ccc(Cl)cc6)CC5)cnc43)cc2)N1 (single isomer, unassigned) [Example 26]"
< 0.1,0.079,"C[C@@]1(C(=O)N2CCC(O)(Cn3cnc4c(cc(Cl)n4-c4ccc([C@H]5COCCN5)cc4)c3=O)CC2)C[C@H]1C(F)(F)F (single isomer, unassigned) [Example 110, 6-Chloro-3-((4-hydroxy-1-((1R,2R)-1-methyl-2-(trifluoromethyl)cyclopropane-1-carbonyl)piperidin-4-yl)methyl)-7-(4-((S)-morpholin-3-yl)phenyl)-3,7-dihydro-4H-pyrrolo[2,3-d]pyrimidin-4-one or 6-chloro-3-((4-hydroxy-1-((1R,2R)-1-methyl-2-(trifluoromethyl)cyclopropane-1-carbonyl)piperidin-4-yl)methyl)-7-(4-((R)-morpholin-3-yl)phenyl)-3,7-dihydro-4H-pyrrolo[2,3-d]pyrimidin-4-one]"
< 0.1,0.091,"Cc1cc(-n2c(Cl)cc3c(=O)n(CC4(O)CCN(C(=O)c5ccc(F)cc5)CC4)cnc32)ccc1[C@H]1CO[C@H](C)CN1 [Example 47, 6-Chloro-3-((1-(4-fluorobenzoyl)-4-hydroxypiperidin-4-yl)methyl)-7-(3-methyl-4-((3S,6R)-6-methylmorpholin-3-yl)phenyl)-3,7-dihydro-4H-pyrrolo[2,3-d]pyrimidin-4-one]"
< 0.1,0.094,"CC1(C(=O)N2CCC(O)(Cn3cnc4c(cc(Cl)n4-c4ccc([C@H]5CO[C@H](C6CC6)CN5)cc4)c3=O)CC2)CC1 [Example 104, 6-Chloro-7-(4-((3S,6R)-6-cyclopropylmorpholin-3-yl)phenyl)-3-((4-hydroxy-1-(1-methylcyclopropane-1-carbonyl)piperidin-4-yl)methyl)-3,7-dihydro-4H-pyrrolo[2,3-d]pyrimidin-4-one]"
< 0.1,0.022,"CC1(C(=O)N2CCC(O)(Cn3cnc4c(cc(Cl)n4-c4ccc([C@H]5COCCN5)cc4)c3=O)CC2)CC1 (single isomer, unassigned) [Example 70]"

# From patent publication US20250122223A1, “HETEROCYCLIC COMPOUNDS AS UBIQUITIN SPECIFIC PROTEASE 7 INHIBITORS” (ALMAC DISCOVERY LIMITED, priority 2022, published 2025)
